We go through eleven compounds from patent EP0461264A1, “ETHYNYLPHENYL DERIVATIVE, PRODUCTION THEREOF, AND REMEDY FOR DISEASES OF CIRCULATORY ORGANS CONTAINING THE SAME AS ACTIVE INGREDIENT” (KAKEN PHARMACEUTICAL CO., LTD., priority 1989, dated 1991).

The test system of data set [1] is spontaneously hypertensive rats. The data set can be described thus: Activity against blood pressure (Test Example 1-1), tail-cuff measurement after oral administration. It is filed as in vivo. To be noted: Rattus norvegicus. The protocol:
Male spontaneously hypertensive rats (20 to 30 weeks) were employed. After being heated in a heating box at 45 ° C for about 5 minutes, the rats were put in holders for measuring blood pressure, and blood pressure cuffs were set on the rats. After the rat's heart rate was stabilized, blood pressure of each rat was measured by a sphygmomanometer for rat (8002e, made by W + W Co., Ltd.) before the administration, and one hour, three hours and six hours after the administration. Each test compound dissolved in a 0.5 % solution of methyl cellulose was administered orally in a volume of 5 mℓ/kg.
Change of the blood pressure was calculated by the following formula.
(§1) Change rate (%) = [(Measured value after administration - Measured value before administration)/Measured value before administration] x 100

For a further data set, the system named is angiotensin II. The data set can be described thus: Inhibitory activity against angiotensin II, constriction response of ileum preparations (Test Example 5). It is filed as cell-based, Hartrey male guinea pigs. The method, then: From Hartrey male guinea pigs weighing about 500 g, ileum preparations were prepared. […] Thereinto 3 x 10^-8M of angiotensin II was added and constriction response of each preparation was measured through a isometoric transducer (made by Nihon Koden Kogyo Co., Ltd.). Before the addition of angiotensin II, a compound of the present invention or saralasin was previously added into a Magnus trough. Contractive responses in both cases were compared and Inhibition rate was calculated by the following formula.
Angiotensin II Inhibition rate = (1 - Tension in case of adding test compound/Tension of control) x 100

The test system of data set [2] is convulsion caused by pentylenetetrazole. The data set can be described thus: Activity against convulsion caused by pentylenetetrazole (Test Example 6). It is filed as in vivo, Slc: ddy male mice. To be noted: summary of Table 4. The protocol: Slc: ddy male mice weighing 24 to 32 g (5 weeks) were bred under an environment of 22° to 24° C room temperature and 60 % humidity for 1 week, and then the bred mice were subjected to a test. The test was carried out as the following procedure. One hour after the oral administration of a test compound, 40 mg/kg of pentylenetetrazole was administered in a caudal vein. Appearance of tonic extensive convulsion was measured as an indication, and anticonvulsive activity was examined. Each test compound was suspended in a 0.5 % solution of methyl cellulose, which was used for a control group.

In data set [3] the test system is Spontaneous hypertensive male rats. The data set can be described thus: Duration of blood pressure reduction activity (Test Example 1-2), direct aortic pressure without anesthesia. The note with it: oral, 3 mg/kg or 10 mg/kg, Figure 1. It is filed as in vivo. The protocol: Spontaneous hypertensive male rats (35 weeks) were employed. Before the day the test was carried out, rats were anesthetized with ether, and then, a polyethylene tube was inserted into an aorta abdominalis of the each rat. The other end of the polyethylene tube was led out of the rat's body, and the led polyethylene tube was connected with a pressure transducer. Blood pressure of each rat was measured by a polygraph (RM-85, made by Nihon Koden Kohgyo Co., Ltd.) without anesthesia before the administration, at intervals of one hour for eight hours after the administration and 24 hours after the administration.
Each test compound disolved in a 0.5 % solution of methyl cellulose was administered orally in a volume of 5 m í/kg and in a dose of 3 mg/kg or 10 mg/kg.
As is clear from Figure 1, blood pressure reduction activity of the compound No. 1 lasted for at least eight hours.

For data set [4], the system named is left circumflex coronary artery and right vertebral artery blood flow. The experiment in a line: Activity against blood flow in anesthetized dogs (Test Example 4). It is filed as in vivo, Beagle dogs. The note with it: intravenous, compared with nicardipine or nimodipine, Figure 4. The method, then:
Beagle dogs weighing 7 to 14 kg were employed, irrespective of sex. Dogs were anesthetized by intravenously administering 30 mg/kg of pentobarbital sodium (Nembutal). During the test […] of pentobarbital was injected continually into each dog. A endotracheal tube was inserted into each trachea. Incision was performed along the midline of the chest and a heart was exposed. Probes of a electromagnetic flowmeter (made by Nihon Koden Kohgyo Co., Ltd.) were set on a left circumflex coronary artery and a right vertebral artery. Each parameter was recorded simultaneously by polygragh (made by Nihon Koden Kogyo Co., Ltd.). […] Change of blood flow was calculated by the following Change rate.
as §1

For data set [5], the system named is atrioventricular conduction system. The note with it: rat, in vivo, iv.
Experimental: Wistar rats weighing 400 to 500 g were employed. Rats were anesthetized by intraperitoneally administering 50 mg/kg of pentobarbital sodium, and electrocardiogram of each rat was recorded in lead II. PQ interval (interval from a begining point of P wave to a begining point of Q wave) in electrocardiogram was measured. Each test compound adjusted with a mixed solution containing 20 % of propylene glycol and 5 % of glucose, was administered additionally in a volume of 0.5 m L/kg in order through a polyethylene tube which was inserted into femoral vein. Electrocardiogram was recorded every one minute for five minutes after the administration at a chart speed of 100 mm/sec.
Activity against PQ interval of a test compound was calculated by the following formula.
Change rate (%) = [(PQ interval after administration - PQ interval before administration)/PQ interval before administration] x 100
The nature of data set [6]: Acute toxicity (Test Example 7). The note with it: rat, in vivo; oral administration, death rate after 7 days; read-out: Rat LDso. The protocol:
In each group 5 Slc: Wistar male rats weighing 100 g to 114 g (4 weeks) were employed. The compound No. 1 was administered orally thereto and with death rate after 7 days a value of acute toxicity was measured.
Rat LDso = 300 to 1000 mg/kg (oral administration)

The test system of data set [7] is model of vasopressin myocardial ischemia. The data set can be described thus: Activity against a model of vasopressin myocardial ischemia (ST wave depression, Test Example 3). To be noted: intravenous, five minutes before vasopressin 0.3 µg/kg, compared with nicardipine or nifedipine, Figure 3. It is filed as in vivo, Donryu strain male rats. The protocol: In accordance with a method of Hiramatu et al. (Japanese Journal Pharmacology 20,313 to 324,1970), Donryu strain male rats weighing 142 to 265 g were employed. Rats were anesthetized by intraperitoneally administering 60 mg/kg of pentobarbital sodium. After intravenous administration of 0.3 µg/kg of vasopressin, electrocardiogram (lead II) was recorded every one minute for five minutes. The maximum depression of ST wave in electrocardiogram was measured as an indication of myocardial ischemia. Five minutes before the administration of vasoperessin, each test compound dissolved in a mixted solution containing 20 % of propylen glycol and 5 % of glucose, was administered intravenously in a dose of 1 mt/kg.

[8] abbreviates: 1 h, one hour after administration, read-out: Change rate of blood pressure 1 hr. value.
The mark [9] stands for this setting: 3 h, three hours after administration, read-out: Change rate of blood pressure 3 hr. value.
Setting [10] is: 6 h, six hours after administration, read-out: Change rate of blood pressure 6 hr. value.

Counter-ions that a name gives are not always drawn. Like-named read-outs stand apart in the source and are kept apart here.

For the compound `C#Cc1cccc(C2C(C(=O)OCCN3CCN(C(c4ccccc4)c4ccccc4)CC3)=C(C)NC(N)=C2C(=O)OCC)c1` (stereo not shown) [compound 26, 4-(3-ethynylphenyl)-3-ethoxycarbonyl-2-amino-6-methyl-5-(N-diphenylmethylpiperazinylethoxycarbonyl)-1,4-dihydropyridine], the change in vivo at 30 mg/kg in data set [1] (setting [8]) was -38.8%; in data set [1] (setting [9]), -43.8%; in data set [1] (setting [10]), -41.5%.

Take `C#Cc1cccc(F)c1C1C(C(=O)OC)=C(C)NC(C)=C1C(=O)OCCN1CCN(C(c2ccccc2)c2ccccc2)CC1` (stereo not shown) [compound 2, 4-(2-ethynyl-6-fluorophenyl)-3-methoxycarbonyl-2,6-dimethyl-5-(N-diphenylmethylpiperazinylethoxycarbonyl)-1,4-dihydropyridine]: the figures for the change in vivo at 30 mg/kg in data set [1] (setting [8]), in data set [1] (setting [9]) and in data set [1] (setting [10]) were -25%, -22.5% and -10%, respectively.

Regarding `C#Cc1cccc(C2C(C(=O)OC)=C(C)NC(C)=C2C(=O)OCCCN2CCN(c3ccccc3OC)CC2)c1` (stereo not shown) [compound 18, 4-(3-ethynylphenyl)-3-methoxycarbonyl-5-[3-(N-2-methoxyphenyl-piperazinyl)propoxycarbonyl]-2,6-dimethyl-1,4-dihydropyridine], the change in vivo at 10 mg/kg is -5.3% in data set [1] (setting [8]), -12.4% in data set [1] (setting [9]) and -14.3% in data set [1] (setting [10]).

On to Saralasin [reference compound], for which the “Angiotensin II Inhibition rate (%)” value in the data set on angiotensin II (Concentration 10^-7 M, 3 x 10^-8M angiotensin II) was 47.3%.

Consider `O=C1NC(=O)C(c2ccccc2)(c2ccccc2)N1` [Diphenylhidantoin, reference compound], for which the anticonvulsive activity entry in data set [2] is “showing anticonvulsive activity”.

In the case of `C#Cc1cccc(C2C(C(=O)OC)=C(C)NC(C)=C2C(=O)OCCN2CCN(C(c3ccccc3)c3ccccc3)CC2)c1` (stereo not shown) [Compound No. 1, 4-(3-ethynylphenyl)-3-methoxycarbonyl-2,6-dimethyl-5-(N-diphenyl-methylpiperazinylethoxycarbonyl)-1,4-dihydropyridine], the “Duration of blood pressure reduction activity” value in data set [3] is listed as “at least eight”. Also, in the data set with angiotensin II (Cavia porcellus, Concentration 10^-6 M, 3 x 10^-8M angiotensin II, read-out: Angiotensin II Inhibition rate (%)), the inhibition at 1 µM came out at 71.1%. In addition, in the data set on angiotensin II (Cavia porcellus, Concentration 10^-7 M, 3 x 10^-8M angiotensin II, read-out: Angiotensin II Inhibition rate (%)), the inhibition at 0.1 µM stood at 56.2%. In addition, the inhibition at 0.01 µM with angiotensin II (Cavia porcellus, Concentration 10^-8 M, 3 x 10^-8M angiotensin II, read-out: Angiotensin II Inhibition rate (%)) was determined as 6.5%. Besides, the “Inhibitory activity against angiotension II” value with angiotensin II (compared with saralasin, positive control drug) was “the same extent of Inhibitory activity against angiotension II as that of saralasin”. For the same compound, the “activity for increasing coronary blood flow” value in data set [4] is “greater activity”. In addition, the “activity for increasing vertebral blood flow” value in data set [4] is recorded as “greater activity”. Besides, the anticonvulsive activity result in data set [2] is “did not show the activity”. In addition, the “influence on artrioventricular conduction system (change rate of PQ interval)” value in data set [5] was “less influence on artrioventricular conduction system as compared with nicardipine”. For the same compound, the figures for the change in vivo at 10 mg/kg in data set [1] (setting [8]), in data set [1] (setting [9]) and in data set [1] (setting [10]) were -39%, -45.2% and -43.3%, respectively. In addition, the LD50 at 168 h in data set [6] lay in the range of 300 to 1000 mg/kg. In addition, the “antimyocardial ischemia activity (maximum depression of ST wave)” value in data set [7] is reported as “greater antimyocardial ischemia activity than that of nicardipine or nifedipine”.

For `C#Cc1cccc(C2C(C(=O)OC)=C(C)NC(C)=C2C(=O)OC(C)CN2CCN(C(c3ccccc3)c3ccccc3)CC2)c1` (stereo not shown) [compound 37, 4-(3-ethynylphenyl)-3-methoxycarbonyl-2,6-dimethyl-5-[2-(N-diphenyl-methylpiperazinyl)-1-methylethoxycarbonyl]-1,4-dihydropyridine], the values for the change in vivo at 30 mg/kg in data set [1] (setting [8]), in data set [1] (setting [9]) and in data set [1] (setting [10]) were -38.1%, -44.7% and -48.7%, respectively.

As to `COCCOC(=O)C1=C(C)NC(C)=C(C(=O)OC(C)C)C1c1cccc([N+](=O)[O-])c1` (stereo not shown) [Nimodipine, isopropyl, 2-methoxyethyl 2,6-dimethyl-4-(3-nitrophenyl)-1,4-dihydropyridinedicarboxylate, reference compound], the change in vivo at 10 mg/kg in data set [1] (setting [8]) is -11%; in data set [1] (setting [9]), -11%; in data set [1] (setting [10]), -10.2%.

`C#Cc1cccc(C2C(C(=O)OC)=C(C)NC(C)=C2C(=O)OCCN2CCN(C(c3ccc(C)cc3)c3ccc(C)cc3)CC2)c1` (stereo not shown) [compound 5, 4-(3-ethynylphenyl)-3-methoxycarbonyl-2,6-dimethyl-5-(N-di-4-methyl-phenylmethylpiperazinylethoxycarbonyl)-1,4-dihydropyridine]: the values for the change in vivo at 10 mg/kg in data set [1] (setting [8]), in data set [1] (setting [9]) and in data set [1] (setting [10]) were -41.5%, -41.5% and -29.2%, respectively.

Take `C#Cc1cccc(C2C(C(=O)OC)=C(C)NC(C)=C2C(=O)OCCN2CCN(C(c3ccc(F)cc3)c3ccc(F)cc3)CC2)c1` (stereo not shown) [compound 4, 4-(3-ethynylphenyl)-3-methoxycarbonyl-2,6-dimethyl-5-(N-di-4-fluorophenylmethylpiperazinylethoxycarbonyl)-1,4-dihydropyridine]: the change in vivo at 10 mg/kg in data set [1] (setting [8]) was -41.2%; in data set [1] (setting [9]), -40.9%; in data set [1] (setting [10]), -35.7%.

As to `COC(=O)C1=C(C)NC(C)=C(C(=O)OCCN(C)Cc2ccccc2)C1c1cccc([N+](=O)[O-])c1` (stereo not shown) [Nicardipine, 2-(N-benzyl-N-methylamino)ethyl, methyl 2,6-dimethyl-4-(3-nitrophenyl)-1,4-dihydropyridinedicarboxylate hydrochloride, reference compound], the figures for the change in vivo at 10 mg/kg in data set [1] (setting [8]), in data set [1] (setting [9]) and in data set [1] (setting [10]) were -35%, -3.5% and -2%, respectively.

By inhibition is commonly meant the percentage by which the read-out fell short of the control.
